Columns and labels:
[1] = tested on: human PBMC; experiment: Ex vivo human PBMC stimulation assay, IFNβ protein; type: cell-based; settings: 0.1, 1, 10 uM, 24 hours
Protocol: After 24 hours of incubation the tubes were centrifuged at 1400 rpm for 5 minutes and supernatants were harvested. Supernatant were stored in −80° C. for subsequent IFNβ measurement. IFNβ measurement was done using Human IFN-β Base Kit (Meso Scale Diagnostics cat # K151ADA) and protocol provided by manufacturer was used. IFN-beta estimation was done by reading assay plate at MESO SECTOR Imager 2400 and using MSD Discovery Workbench 4.0 program. After 24 hours IFNβ protein was analyzed.
Results shown in Table 10 reflect an average of measurements conducted using five different donors.

[2] = tested on: hepatocytes of CD-1 mouse; experiment: Hepatocyte incubation, metabolite identification, mouse; type: in vitro ADME; settings: LC-MS/MS
Text: (§1) Cryopreserved pooled hepatocytes were purchased from ThermoFisher Scientific (Waltham, Mass.), Xenotech, LLC (Kansas City, Kans.) and In Vitro ADMET Laboratories (Columbia, Md.), and the appropriate media were purchased from In Vitro ADMET Laboratories (Columbia, Md.) and Life Technologies (Carlsbad, Calif.). AOPI staining solution and phosphate buffer were obtained from Corning Life Sciences (Tewksbury, Mass.) and Nexcelom Bioscience (Lawrence, Mass.), respectively. All chemicals, reagents, and solvents used in analysis were of either analytical or HPLC grade.
(§2) Prior to incubations, the cryopreserved hepatocytes were thawed in a water bath at 37° C. One tube of cryopreserved hepatocytes was added to each 50-mL conical tube of cryopreserved hepatocyte recovery medium (UCRM) obtained from In Vitro ADMET Laboratories (Columbia, Md.). The cells were spun in a Beckman centrifuge (Brea, Calif.) with a GH 3.8 rotor at 740 rpm for 10 minutes at room temperature 4° C. […] The solution was gently mixed and cells were counted using a Cellometer (Nexcelom, Lawrence, Mass.). […]
(§3) The LC-MS/MS system was composed of a Shimadzu HPLC and an AB-SCIEX TripleTOF 5600 hybrid quadrupole and TOF mass spectrometer (Framingham, Mass.). […] The samples obtained from incubations with hepatocytes were analyzed under both negative and positive scan modes. […]

[3] = tested on: hepatocytes of Sprague Dawley rat; experiment: Hepatocyte incubation, metabolite identification, rat; type: in vitro ADME; settings: LC-MS/MS
Text: as §1, §2, §3

[4] = tested on: hepatocytes of Beagle dog; experiment: Hepatocyte incubation, metabolite identification, dog; type: in vitro ADME; settings: LC-MS/MS
Text: as §1, §2, §3

[5] = tested on: hepatocytes of Cynomolgus monkey; experiment: Hepatocyte incubation, metabolite identification, monkey; type: in vitro ADME; settings: LC-MS/MS
Text: as §1, §2, §3

[6] = tested on: hepatocytes of human; experiment: Hepatocyte incubation, metabolite identification, human; type: in vitro ADME; settings: LC-MS/MS
Text: as §1, §2, §3

[7] = tested on: CT26 tumor; experiment: CT26 dual tumor model; settings: all the lower doses (0.6-5 mg/kg), I.T., single dose
Protocol: For study B, treatment was started 8 days (0.6 mg/kg, and 10 mg/kg) after the tumor implantation, when the average tumors reached approximately 120 mm^3.
All the mice in the study have two subcutaneous CT26 tumors. The “treated tumor” indicates the tumor with compound direct administration, while “untreated tumor” indicates the tumor without direct compound administration. Tumor volume was followed throughout the experiment. Tumor volume is measured two times weekly after the start of treatment. Tumor burden is calculated from caliper measurements by the formula for the volume of a prolate ellipsoid (L×W^2)/2 where L and W are the respective orthogonal length and width measurements (mm).

[8] = tested on: human PBMC; experiment: Ex vivo human PBMC stimulation assay, IFNβ mRNA (qPCR); settings: 0.1-10 μM, 3 hr and 24 hr
Protocol: For IFNβ mRNA quantification, total RNA was isolated using the RNeasy Mini Kit (Qiagen, Germany) according to the manufacturer's protocol. IFNβ mRNA was quantified by qPCR assay. In brief, total RNA (400 ng to 1000 ng) was converted to cDNA in a 60-μl reaction volume using SuperScript VILO MasterMix (Life Technologies, USA). Obtained cDNAs (10 ng) were subsequently amplified using Applied Biosystems TaqMan expression assays using RNA-specific primers for IFNB1 (Hs01077958_s1), and GAPDH (Hs99999905_m1). A qPCR analysis was performed with TaqMan Fast Advanced Master Mix (Life Technologies, USA) on the Applied Biosystems Quantstudio 12K Flex Real-Time PCR System, with an initial 2-min step at 50° C. followed by 95° C. for 2 s and 40 cycles of 95° C. for 1 s and 60° C. for 20 s. Relative gene expression was calculated after normalization against the reference gene GAPDH using the 2-ΔΔCT method. Calculations were done using the Applied Biosystems Quantstudio 12K Flex software v1.2.2.

metabolites identified in hepatocyte incubations [2]: No apparent metabolite
metabolites identified in hepatocyte incubations [3]: No apparent metabolite
metabolites identified in hepatocyte incubations [4]: No apparent metabolite
metabolites identified in hepatocyte incubations [5]: No apparent metabolite
metabolites identified in hepatocyte incubations [6]: No apparent metabolite
SMILES: O=[P@]1(S)OC[C@H]2O[C@@H]3[C@H](F)[C@@H]2O[P@](=O)(S)OC[C@H]2O[C@H]([C@H](F)[C@@H]2O1)n1cnc2c(ncnc21)NC/C=C/CNc1ncnc2c1ncn23 [Compound 1a]
induction of primary human PBMC IFNβ protein production [1]: dose-dependent manner
anti-tumor effect on untreated tumors [7]: tumor growth inhibition activity
induction of IFNβ mRNA in primary PBMC [8]: dose- and time-dependent manner

Source: patent US20200055883A1, “CYCLIC DI-NUCLEOTIDES DERIVATIVE FOR THE TREATMENT OF CANCER” (Eisai R&D Management Co., Ltd., priority 2017, published 2020)
